Experimental findings from PMC4588880, “Three genes encoding AOP2, a protein involved in aliphatic glucosinolate biosynthesis, are differentially expressed in Brassica rapa” (Journal of Experimental Botany, 2015) are described below.

Common to all, as to experiment: HPLC of desulfoglucosinolates, conversion to 3-butenyl glucosinolate
What all share (format): biochemical
Conditions in all cases: 10 mM 2-oxoglutarate, 10 mM ascorbate, 200 uM FeSO4, 200 mM sucrose, 28 °C, 4 h

Assay [1] addresses T1, BrAOP2.1 (Brassica rapa, UniProt M4EZD7).
T1 construct: full-length 439 aa, N-terminal thioredoxin/His fusion (pET-32a), E. coli BL21(DE3), Ni-NTA; chromosome A09
T1 sequence (M4EZD7 1-439): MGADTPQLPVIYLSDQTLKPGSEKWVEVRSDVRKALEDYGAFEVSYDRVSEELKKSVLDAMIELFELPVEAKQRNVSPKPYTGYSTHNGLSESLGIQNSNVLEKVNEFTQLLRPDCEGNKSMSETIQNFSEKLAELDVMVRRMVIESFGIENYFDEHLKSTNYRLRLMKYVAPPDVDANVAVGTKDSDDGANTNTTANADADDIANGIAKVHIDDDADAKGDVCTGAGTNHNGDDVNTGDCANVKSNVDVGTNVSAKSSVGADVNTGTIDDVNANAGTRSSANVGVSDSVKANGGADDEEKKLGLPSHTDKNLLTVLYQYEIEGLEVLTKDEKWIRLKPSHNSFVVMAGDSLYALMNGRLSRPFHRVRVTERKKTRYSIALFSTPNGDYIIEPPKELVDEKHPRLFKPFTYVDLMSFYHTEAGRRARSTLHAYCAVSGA

The next assay concerns the target T2, BrAOP2.3 (Brassica rapa, UniProt M4DPT0).
T2 construct: full-length 428 aa, N-terminal thioredoxin/His fusion (pET-32a), E. coli BL21(DE3), Ni-NTA; chromosome A02
T2 sequence (M4DPT0 1-428): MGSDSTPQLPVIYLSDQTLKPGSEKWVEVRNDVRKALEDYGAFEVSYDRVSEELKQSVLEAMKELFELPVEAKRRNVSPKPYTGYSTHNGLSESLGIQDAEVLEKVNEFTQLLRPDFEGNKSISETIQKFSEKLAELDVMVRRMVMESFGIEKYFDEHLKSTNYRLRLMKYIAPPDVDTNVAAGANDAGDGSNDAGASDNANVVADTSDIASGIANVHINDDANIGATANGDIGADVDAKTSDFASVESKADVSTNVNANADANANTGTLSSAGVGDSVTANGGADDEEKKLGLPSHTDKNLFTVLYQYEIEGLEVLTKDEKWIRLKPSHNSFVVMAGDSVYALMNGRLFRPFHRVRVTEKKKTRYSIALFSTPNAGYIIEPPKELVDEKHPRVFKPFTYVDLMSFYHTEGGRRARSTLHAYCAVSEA

Assay [2] addresses T3, BrAOP2.1 (Brassica rapa, UniProt M4EZD7, H308L).
T3 construct: full-length 439 aa, N-terminal thioredoxin/His fusion (pET-32a), E. coli BL21(DE3), Ni-NTA; chromosome A09

T3 sequence (M4EZD7 entry or part of it H308L): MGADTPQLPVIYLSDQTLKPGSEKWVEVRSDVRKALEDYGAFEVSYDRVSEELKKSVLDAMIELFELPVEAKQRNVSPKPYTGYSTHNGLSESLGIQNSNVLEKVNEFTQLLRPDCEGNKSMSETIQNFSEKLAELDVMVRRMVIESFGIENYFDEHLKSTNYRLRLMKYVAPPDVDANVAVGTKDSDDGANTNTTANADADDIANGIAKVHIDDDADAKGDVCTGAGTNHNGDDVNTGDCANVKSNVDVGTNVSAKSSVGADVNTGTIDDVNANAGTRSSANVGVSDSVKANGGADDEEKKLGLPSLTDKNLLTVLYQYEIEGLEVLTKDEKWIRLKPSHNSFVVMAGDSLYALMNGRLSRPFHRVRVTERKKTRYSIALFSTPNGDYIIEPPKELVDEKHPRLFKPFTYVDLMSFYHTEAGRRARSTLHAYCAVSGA

As for `C[S+]([O-])CCCC/C(=N/OS(=O)(=O)O)S[C@@H]1O[C@H](CO)[C@@H](O)[C@H](O)[C@H]1O` (stereo partly drawn) [glucoraphanin], the “HPLC of desulfoglucosinolates, conversion to 3-butenyl glucosinolate” value is reported as “all three BrAOP2 proteins successfully catalysed the conversion of GRA to NAP” on BrAOP2.1 [1], “all three BrAOP2 proteins successfully catalysed the conversion of GRA to NAP” at BrAOP2.3 and “the purified H308L mutant enzyme was shown to still catalyse the conversion of GRA” on BrAOP2.1 [2].
